Laboratory results: ChEMBL document CHEMBL3886685, “Nitrogen-containing bicyclic aromatic heterocyclic compound” (2016)

target: Cathepsin S (Homo sapiens, UniProt P25774); test: Inhibition Assay: 5 μL of a human cathepsin S enzyme (R&D1183-CY-010) was added to a 96-well plate so as to be 20 ng/well. Next, 10-fold dilution of the test compound (a 10 mM DMSO solution) was serially performed with a buffer solution for assay (a solution of 50 mM sodium methoxide, 250 mM sodium chloride and 5 mM dithiothreitol (DTT), adjusted to pH=4.5 with 1 N hydrochloric acid) six times such that the final concentration becomes 0.1 nM to 10 μM then, 20 μL of each of the solutions was added to the wells (the final DMSO concentration was 0.1%), and 25 μL of synthetic substrate VVR-AMC (3211-V manufactured by PEPTIDE […], INC.) was added thereto such that the final concentration becomes 40 μM, thereby starting a enzyme reaction. A fluorescence intensity (an excitation wavelength: 380 nm and a fluorescent wavelength: 460 nm) was measured at 37° C. for 10 minutes immediately after the start of the reaction using a fluorescence spectrophotometer (SPECTRA MAX GEMINI, manu
Sequence (P25774 whole entry): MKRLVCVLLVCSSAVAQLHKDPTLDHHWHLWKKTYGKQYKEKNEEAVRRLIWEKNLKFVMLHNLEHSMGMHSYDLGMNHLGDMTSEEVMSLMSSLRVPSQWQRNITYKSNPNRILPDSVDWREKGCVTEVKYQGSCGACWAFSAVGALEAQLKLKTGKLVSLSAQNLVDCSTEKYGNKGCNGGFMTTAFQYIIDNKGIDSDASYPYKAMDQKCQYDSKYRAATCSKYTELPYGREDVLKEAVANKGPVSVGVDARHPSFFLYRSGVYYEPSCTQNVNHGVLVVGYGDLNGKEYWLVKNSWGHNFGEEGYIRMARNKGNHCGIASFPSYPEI

| IC50 | SMILES |
| --- | --- |
| 2.3 nM | CN1CCC(C(=O)N2CCC(CCOc3ccc(-c4nc(C#N)nc5c4ncn5C)cc3C(F)(F)F)CC2)C1 (centres undefined) |
| 1.9 nM | CN(C)C(=O)CN1CCC(CCOc2ccc(-c3nc(C#N)nc4c3ccn4CCO)cc2C(F)(F)F)CC1 |
| 1.4 nM | CN1CCC[C@H]1C(=O)N1CCC(CCOc2ncc(-c3nc(C#N)nc4c3ncn4CC3CCOC3)cc2C(F)(F)F)CC1 (some centres undefined) |
| 2.3 nM | CN1CCC[C@H]1C(=O)N1CCC(CCOc2ccc(-c3nc(C#N)nc4c3ccn4C)cc2C(F)(F)F)C1 (some centres undefined) |
| 2.1 nM | Cn1cnc2c(-c3ccc(OCCC4CCN(CC(=O)N5CCC(C#N)CC5)CC4)c(C(F)(F)F)c3)nc(C#N)nc21 |
| 4.3 nM | CC(C)N1CCC(CCOc2ccc(-c3nc(C#N)nc4c3ccn4CC3CCOC3)cc2C#N)CC1 (centres undefined) |
| 2 nM | CCN1CCC(CCOc2ncc(-c3nc(C#N)nc4c3ncn4CC3CCOC3)cc2C(F)(F)F)CC1 (centres undefined) |
| 3.1 nM | CCN1CC(COc2ccc(-c3nc(C#N)nc4c3ccn4C)cc2C(F)(F)F)C1 |
| 1.2 nM | CCN1CCC(CCOc2ccc(-c3nc(C#N)nc4c3ncn4C)cc2C(F)(F)F)CC1 |
| 2.4 nM | CCN1CCC(CCOc2ncc(-c3nc(C#N)nc4c3ccn4CC(=O)N3CCOCC3)cc2C(F)(F)F)CC1 |
| 2.6 nM | N#Cc1nc(-c2ccc(OCCC3CCNCC3)c(C(F)(F)F)c2)c2ccn(CC3CCCO3)c2n1 (centres undefined) |
| 1 nM | CN1CCC[C@@H]1C(=O)N1CCC(CCOc2ncc(-c3nc(C#N)nc4c3ncn4C)cc2C(F)(F)F)CC1 |
| 2.5 nM | N#Cc1nc(-c2ccc(OCCC3CCOCC3)c(C(F)(F)F)c2)c2ccn(CC(=O)N3CCC(CN4CCCC4)CC3)c2n1 |
| 2 nM | Cn1cnc2c(-c3cnc(OCCC4CCN(C5CCC5)CC4)c(C(F)(F)F)c3)nc(C#N)nc21 |
| 2.4 nM | Cn1cnc2c(-c3ccc(OCCC4CCN(CC(=O)N5CCC(F)(F)C5)CC4)c(C(F)(F)F)c3)nc(C#N)nc21 |
| 1.9 nM | N#Cc1nc(-c2ccc(OCC3CCNCC3)c(C(F)(F)F)c2)c2ccn(CC3CCOC3)c2n1 (centres undefined) |
| 2.8 nM | CCN1CCC(COc2ccc(-c3nc(C#N)nc4c3ccn4CC3CCOC3)cc2C(F)(F)F)CC1 (centres undefined) |
| 4.7 nM | CN1CCC[C@H]1C(=O)N1CCC(CCOc2ccc(-c3nc(C#N)nc4c3ccn4CC3CCOC3)cc2C(F)(F)F)CC1 (some centres undefined) |
| 3.3 nM | CN1CCC[C@H]1C(=O)N1CCC(CCOc2ccc(-c3nc(C#N)nc4c3ccn4C3COC3)cc2C(F)(F)F)CC1 |
| 3 nM | CCN1CCCC(COc2ccc(-c3nc(C#N)nc4c3ccn4C)cc2C(F)(F)F)C1 (centres undefined) |
| 1.9 nM | N#Cc1nc(-c2ccc(OCCC3CCNCC3)c(C(F)(F)F)c2)c2ccn(CC3CCOC3)c2n1 (centres undefined) |
| 2 nM | CCN1CCC(OCCOc2ccc(-c3nc(C#N)nc4c3ccn4C)cc2C(F)(F)F)CC1 |
| 2.2 nM | CCN1CCC(CCOc2ccc(-c3nc(C#N)nc4c3ncn4CC3CCOC3)cc2C(F)(F)F)CC1 (centres undefined) |
| 2.2 nM | CN1CCC(N(C)C(=O)Cn2ccc3c(-c4ccc(OCCC5CCOCC5)c(C(F)(F)F)c4)nc(C#N)nc32)C1 (centres undefined) |
| 2 nM | CCN1CCC(CCOc2ccc(-c3nc(C#N)nc4c3ccn4CC(N)=O)cc2C(F)(F)F)CC1 |
| 3.8 nM | CCN1CCC(C)(COc2ccc(-c3nc(C#N)nc4c3ccn4C)cc2C(F)(F)F)CC1 |
| 2.3 nM | CCN1CCC(CCOc2ccc(-c3nc(C#N)nc4c3ccn4CCO)cc2C(F)(F)F)CC1 |
| 1.9 nM | Cn1cnc2c(-c3cc(F)c(OCCC4CCNCC4)c(C(F)(F)F)c3)nc(C#N)nc21 |
| 2.2 nM | CN(C)C(=O)CN1CCC(CCOc2ncc(-c3nc(C#N)nc4c3ccn4C)cc2C(F)(F)F)CC1 |
| 2.9 nM | CN(C)C(=O)CN1CCC(CCOc2ccc(-c3nc(C#N)nc4c3ccn4CC3CCOC3)cc2C(F)(F)F)CC1 (centres undefined) |

| SMILES | IC50 |
| --- | --- |
| CCn1ccc2c(-c3ccc(OCCC4CCNCC4)c(C(F)(F)F)c3)nc(C#N)nc21 | 3 nM |
| CCN1CCC(CCOc2ncc(-c3nc(C#N)nc4c3ccn4CC3CCOC3)cc2C(F)(F)F)CC1 (centres undefined) | 2.6 nM |
| N#Cc1nc(-c2ccc(OCCC3CCNCC3)c(C(F)(F)F)c2)c2ccn(C3CCOCC3)c2n1 | 2.6 nM |
| N#Cc1nc(-c2ccc(OCCC3CCN(C(CF)CF)CC3)c(C#N)c2)c2ccn(CC3CCOC3)c2n1 (centres undefined) | 8.9 nM |
